Experimental data: US20060134243A1, “Method of using extracts of epimedium species” (Bionovo, Inc., priority 2004, published 2006)

Tests used:
TNF-RE-tk-Luc = experiment: Effect of antiestrogens on TNF-RE-tk-Luc (Example 2); type: cell-based, human; conditions: for effect on the repression induced by E2: TNF-RE-tk-Luc; for activation of TNF-RE-tk-Luc: antiestrogens, in contrast to E2
Text: (§1) Plasmid Construction. A PstI to AhaII fragment from the human TNF-α gene, pLT, was cloned upstream of the luciferase cDNA. […] ERβ mutants were created with QuikChange site-directed mutagenesis kits (Stratagene), by using oligonucleotides containing the mutation. The mutants were sequenced with Sequenase kits (Amersham Pharmacia) to verify the presence of the mutation.
(§2) For experiments, cells were collected, transferred to a cuvette, and then electroporated with a Bio-Rad gene pulser as described previously using 3 μg of reporter plasmid and 1 μg of ERα or ERβ expression vectors. After electroporation, the cells were re-suspended in media and plated at 1 ml/dish in 12-well multiplates. […] The concentration of hormone required to produce a half-maximal induction (EC50) or inhibition (IC50) of luciferase activity was calculated with the Prism curve-fitting program (Graph Pad Software, version 2.0b). […] The cells were plated in duplicate at a density of 25,000 cells/35-mm plate in tissue culture medium containing 3% stripped fetal bovine serum. […] After 8 days the cells were counted with a Coulter counter.

breast cancer = conditions: among the 5129 women in the treatment group; median follow-up of 40 months; cited from earlier work
[1] = system: primary invasive breast cancer; conditions: women at high risk for breast cancer; cited from earlier work
[2] = system: estrogen receptor-positive breast cancer; conditions: five years of therapy; cited from earlier work
ERβ [3] = target: T1, ERβ (Homo sapiens, UniProt Q92731); experiment: Repression of TNF-α activation of TNF-RE-tk-Luc in U2OS cells with transfected ERβ; type: cell-based
T1 construct: expressed in transfected cells
Text: as §1, §2
The extracts (a and b) were than decanted and only the soluble material was used.

ERβ [4] = target: T1, ERβ; experiment: Repression of TNF-α activation of TNF-RE-tk-Luc with ERβ (Example 2); type: cell-based; conditions: in the presence of ERβ
Text: as §1, §2

T1 sequence (Q92731 whole entry): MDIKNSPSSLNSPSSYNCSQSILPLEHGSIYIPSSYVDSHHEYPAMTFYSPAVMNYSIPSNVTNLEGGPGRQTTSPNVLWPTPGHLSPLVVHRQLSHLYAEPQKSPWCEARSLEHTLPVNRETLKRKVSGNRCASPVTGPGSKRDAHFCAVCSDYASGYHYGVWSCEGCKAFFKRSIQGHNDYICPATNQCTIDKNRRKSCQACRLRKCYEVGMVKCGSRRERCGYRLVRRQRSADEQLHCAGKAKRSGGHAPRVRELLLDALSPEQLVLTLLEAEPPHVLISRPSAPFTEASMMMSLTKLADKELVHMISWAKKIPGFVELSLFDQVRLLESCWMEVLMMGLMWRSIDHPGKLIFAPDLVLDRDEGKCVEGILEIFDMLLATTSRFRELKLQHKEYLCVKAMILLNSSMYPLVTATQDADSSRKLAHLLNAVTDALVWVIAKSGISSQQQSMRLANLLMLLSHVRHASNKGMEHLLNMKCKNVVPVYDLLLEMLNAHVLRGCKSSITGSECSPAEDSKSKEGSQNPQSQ

| repression of TNF-α activation of TNF-RE (ERβ [3]) | repression of TNF-α activation of TNF-RE-tk-Luc (ERβ [4]) | SMILES | effect on the repression induced by E2 (TNF-RE-tk-Luc) | activation of TNF-RE-tk-Luc (TNF-RE-tk-Luc) | cases of breast cancer (breast cancer) | reduction of the risk of primary invasive breast cancer [1] | reduction of mortality from breast cancer [2] | reduction of the risk of recurrences [2] |
| --- | --- | --- | --- | --- | --- | --- | --- | --- |
| – | – | O=C(c1ccc(OCCN2CCCCC2)cc1)c1c(-c2ccc(O)cc2)sc2cc(O)ccc12 [raloxifene] | abolished the repression induced by E2 | 2 fold | 13 | – | – | – |
| – | – | C[C@]12CC[C@@H]3c4ccc(O)cc4C[C@@H](CCCCCCCCC[S+]([O-])CCCC(F)(F)C(F)(F)F)[C@H]3[C@@H]1CC[C@@H]2O (stereo partly drawn) [ICI 182,780] | abolished the repression induced by E2 | 2 fold | – | – | – | – |
| – | – | CC/C(=C(\c1ccccc1)c1ccc(OCCN(C)C)cc1)c1ccccc1 [tamoxifen] | abolished the repression induced by E2 | 2 fold | – | 49% | 22% | 42% |
| 100% | 60-80% | C[C@]12CC[C@@H]3c4ccc(O)cc4CC[C@H]3[C@@H]1CC[C@@H]2O [E2, estradiol] | – | – | – | – | – | – |
